From US6051389A, “Enzyme sensor” (Radiometer Medical A/S, priority 1996, dated 2000)
Where a name gives a salt, the structure may show the parent alone.

System: lactate oxidase
Experiment: Enzyme Stability Test: oxalate as stabilising agent for lactate oxidase in S4932 rinse solution (Example 5)
Type: biochemical, Pediococcus
Description: Colorimetric lactate oxidase assay
The formation of H2 O2 is determined in a peroxidase (POD) assay system where a quinonimine dye is formed. The amount of formed quinonimine dye is determined spectrophotometically at 490 nm.
100 μL of Reagent A is added to a well of a microtiterplate (Immunoplate, Nunc, Roskilde, Denmark). The colour reaction is started by adding 100 μL of the Enzyme Solution. Immediately afterwards, the microtiterplate is placed in the plate-holder of a THERMOmax incubator (Molecular Devices, Menlo Park, Calif., USA) pre-set to: 37° C., kinetic mode, lag-time 5 min., reading time 15 min., and automix.
The enzymatic activity of lactate oxidase (and also other enzymes) is decreasing exponentially. Therefore, the half-life period (t1/2) for the enzymatic activity will be independent of the initial concentration, and, thus, t1/2 is an excellent expression for the stability of an enzyme under various conditions.
The enzymatic activity is determined (as described in the Enzyme Activity Test above) for the enzyme composition in question at least four times over a relevant period, e.g. every day for at least four days (day 0 to day 3). t1/2 is then calculated following standard mathematical methods.
A solution of 0.04 U/mL lactate oxidase in S4932 rinse solution (Radiometer Medical A/S, Copenhagen, Denmark) was prepared. Disodium oxalate corresponding to a total concentration of 1, 2, 4, 8, and 16 mM of oxalate was added. The enzymatic activity of the solutions was determined five times over a period of 13 days. The enzymatic stability of these solutions was compared with the enzymatic stability of a solution without oxalate.

O=C(O)C(=O)O [Oxalate, disodium oxalate]
Enzymatic Activity (oxalate 1 mM, time 0 h, 0.04 U/mL lactate oxidase): 13.76 mOD/min.
Enzymatic Activity (oxalate 1 mM, time 68.5 h): 11.47 mOD/min.
Enzymatic Activity (oxalate 1 mM, time 148 h): 11.01 mOD/min.
Enzymatic Activity (oxalate 1 mM, time 199 h): 9.89 mOD/min.
Enzymatic Activity (oxalate 1 mM, time 319 h): 8.67 mOD/min.
Enzymatic Activity (oxalate 2 mM, time 0 h, 0.04 U/mL lactate oxidase): 13.63 mOD/min.
Enzymatic Activity (oxalate 2 mM, time 68.5 h): 12.08 mOD/min.
Enzymatic Activity (oxalate 2 mM, time 148 h): 11.07 mOD/min.
Enzymatic Activity (oxalate 2 mM, time 199 h): 9.92 mOD/min.
Enzymatic Activity (oxalate 2 mM, time 319 h): 8.63 mOD/min.
Enzymatic Activity (oxalate 4 mM, time 0 h, 0.04 U/mL lactate oxidase): 12.87 mOD/min.
Enzymatic Activity (oxalate 4 mM, time 68.5 h): 11.90 mOD/min.
Enzymatic Activity (oxalate 4 mM, time 148 h): 11.36 mOD/min.
Enzymatic Activity (oxalate 4 mM, time 199 h): 10.36 mOD/min.
Enzymatic Activity (oxalate 4 mM, time 319 h): 9.60 mOD/min.
Enzymatic Activity (oxalate 8 mM, time 0 h, 0.04 U/mL lactate oxidase): 11.86 mOD/min.
Enzymatic Activity (oxalate 8 mM, time 68.5 h): 11.34 mOD/min.
Enzymatic Activity (oxalate 8 mM, time 148 h): 10.86 mOD/min.
Enzymatic Activity (oxalate 8 mM, time 199 h): 9.84 mOD/min.
Enzymatic Activity (oxalate 8 mM, time 319 h): 9.33 mOD/min.
Enzymatic Activity (oxalate 16 mM, time 0 h, 0.04 U/mL lactate oxidase): 10.37 mOD/min.
Enzymatic Activity (oxalate 16 mM, time 68.5 h): 10.15 mOD/min.
Enzymatic Activity (oxalate 16 mM, time 148 h): 9.72 mOD/min.
Enzymatic Activity (oxalate 16 mM, time 199 h): 8.81 mOD/min.
Enzymatic Activity (oxalate 16 mM, time 319 h): 8.65 mOD/min.
